Test results: patent publication EP1727814B1, “NUCLEOSIDE ANALOGUES WITH ANTIVIRAL ACTIVITY” (Universita' Degli Studi Di Catania, priority 2004, dated 2005)

Tests used:
HTLV-1 = assay: Inhibition of HTLV-1 transmission to lymphomonocytes by co-cultivation (DNA-PCR, RT-PCR, Tax Western blot); assay type: cell-based, HTLV-1 (human T lymphotropic retrovirus type 1); details: lowest concentrations (5µM and 1 µM)
Protocol: (§1) To assay the capacity to inhibit transmission, lymphomonocytes of adult peripheral blood were separated by density gradient centrifugation and then infected with HTLV-1 by co-cultivation with a chronically infected line that produces viruses, following irradiation of the donor cells (Miyoshi et al. Nature 1981, 296: 770-772).
(§2) The assayed nucleoside analogues (compounds A, B and C) were added at different concentrations at the moment of infection and the treatment was repeated at 3, 7 and 10 days from the first exposure.
The infection was monitored by verifying that the cells treated had become infected, compared to untreated controls, four weeks after infection. The infection was determined by monitoring the presence of proviral DNA and the viral RNA expression, by DNA-PCR and RT-PCR assay respectively. With these techniques it is possible to amplify and highlight the viral genome of HTLV-1 integrated into the host cell, that is virus-specific RNA-messengers, by the use of specific oligonucleotides for viral regions.
For further evaluation of the infection the viral protein expression of HTLV-1 Tax was also highlighted using Western blot analysis with specific monoclonal antibodies.

[1] = system: lymphomonocytes of adult peripheral blood; assay: Proliferative response of infected and uninfected lymphomonocyte cultures; assay type: cell-based; details: lowest concentrations (5µM and 1 µM)
Protocol: as §1, §2
Moreover, the infected and uninfected cultures, treated or untreated with the compounds in question, were assayed to determine the proliferative response during infection, in order to verify, in addition to the antiviral effect also any antiproliferative effect with regard to the infected cultures.

RT of avian retrovirus = assay: Inhibition in vitro of retroviral reverse transcriptase (cDNA synthesis, 32P incorporation, gel electrophoresis); assay type: biochemical; details: after preincubation with PBMC lysates
Source text: In addition to the tests on cells susceptible to infection by human retroviruses, an assay was set up to highlight the capacity of the compounds A, B and C to inhibit in vitro the activity of a retroviral reverse transcriptase (RT). In short, the assay is based on the principle that starting from an RNA template, it is possible to evaluate the effect of inhibition of the capacity of the RT to synthesise cDNA, by identifying the cDNA fragment of neosynthesis, following gel electrophoretic run, thanks to incorporation of a nucleotide precursor labelled with phosphorus 32 (P32). […] As in order to be utilisable by the RT, the nucleoside analogues must be transformed into their triphosphate form, the compounds in question were placed in contact with cell protein extracts containing kinases capable of inducing phosphorylations. For this purpose protein extracts were used, obtained by lysis from a million PBMC previously stimulated in 48h of culture with PHA. The nucleoside compounds were incubated in ice for one hour with the lysates. After incubation the samples were taken to 95°C in order to inactivate the cellular enzymes present in the lysates. […]

HSV-1, strain "F" = assay: Plaque reduction assay in Vero cells; assay type: cell-based, herpes simplex type 1 (HSV-1); details: Human alphaherpesvirus 1; HSV-1, Vero cells, 72h; read-out: EC50 (concentration capable of reducing the formation of plaques by 50%)
Protocol: (§3) To assay the activity of the compounds also towards herpes virus infections, the model for in vitro transmission of herpes simplex type 1 (HSV-1) and of herpes simplex type 2 (HSV-2) to permissive cells of the Vero cell line and plaque reduction assay were used. Vero cells were transferred and cultivated for 24h at 37°C in six-well plates for the cultures to reach confluence. After removal of the culture medium in the wells, a suspension was added containing 100 plaque forming units (PFU) of HSV-1, strain "F", or HSV-2, strain "G" in 100 µl of medium. After one hour of incubation the appropriate quantities of compounds were added diluted in culture medium with the addition of serum 2% and methylcellulose 0.8% to obtain final concentrations of the compounds ranging from 1 µM to 400 µM. The cultures were then incubated for 72h, the medium was removed from the wells and stained with crystal violet 0.8%. After removing the wash liquid, the plates were left to dry and the number of plaques was determined. Acyclovir was used as the positive reference control. A double assay was performed and the values of EC50 (concentration capable of reducing the formation of plaques by 50%) were calculated by extrapolating the mean number of plaques from the plot towards the corresponding concentrations of the compounds.

HSV-2, strain "G" = assay: Plaque reduction assay in Vero cells; assay type: cell-based, herpes simplex type 2 (HSV-2); details: Human alphaherpesvirus 2; HSV-2, Vero cells, 72h; read-out: EC50 (concentration capable of reducing the formation of plaques by 50%)
Protocol: as §3

HIV-1 = assay: Anti-HIV activity in CEM cells, p24 ELISA in supernatant
Protocol: The strain HIV-1 mixed with HIV-IIIB produced in chronically infected cells of lymphoid origin H-9 and therefore capable of growing the virus stably in a culture, was used to assay the anti-HIV activity. Viral inoculation was prepared by low speed centrifugation (3000 rpm) of the supernatant from the line producing the virus and by subsequent ultracentrifugation (40,000 rpm). The concentrated virus was titrated in TCID 50%/ml (units infecting 50% of the cultures). Cells from the lymphoid T-cell line, CEM, were used as cells to infect. The target cells were placed in contact with various quantities of TCID 50% of titrated virus, in an interval ranging from a MOl (multiplicity of infection) of 0.0001 and 0.1 TCID 50%/cell.
The cultures were kept for 7 days at 37°C in the presence of fetal bovine serum 2%. After 2-4 days of culture the medium was removed and replaced with fresh medium to which the compounds in question were again added.
After seven days of setting up the culture, the infection was evaluated using the ELISA method, measuring the production of HIV-1 p24 protein in the supernatant of infected cultures, treated and untreated.

[2] = Human immunodeficiency virus 1, CCRF-CEM, 168 h, read-out: inhibition of the production of p24 in the supernatant of infected cultures

Row | Compound | protection from the infection (HTLV-1) | antiproliferative action [1] | inhibition of RT activity (RT of avian retrovirus; 0.1, 1 and 20 µM) | EC50 (HSV-1, strain "F") [µM] | EC50 (HSV-2, strain "G") [µM] | inhibition of the production of p24 in the supernatant of infected cultures (HIV-1; 0.004 µM, CEM cells, 7 days) | inhibition at 0.04 µM (HIV-1; [2]) [%] | inhibition at 0.4 µM (HIV-1; [2]) [%] | inhibition of RT activity (RT of avian retrovirus; 0.1 and 10 µM) | inhibition at 0.004 µM (HIV-1; [2]) [%]
1 | CCOP(=O)(CC1CC(n2cc(F)c(=O)[nH]c2=O)ON1C)OCC (stereo not shown) [Compound C] | total protection | poor or no antiproliferative action | capable of inhibiting RT activity | 34 | 56 | did not cause inhibition | 60 | 75 |  | 
2 | Cc1cn([C@H]2C[C@H](N=[N+]=[N-])[C@@H](CO)O2)c(=O)[nH]c1=O [AZT, zidovudine, reference compound] |  |  |  |  |  |  | 80 | 98 | capable of inhibiting RT activity | 60
3 | Nc1nc2c(ncn2COCCO)c(=O)[nH]1 [acyclovir, Acyclovir, reference compound] |  |  |  | 14 | 32 |  |  |  |  | 
4 | CCOP(=O)(CC1CC(n2cc(C)c(=O)[nH]c2=O)ON1C)OCC (stereo not shown) [Compound B] |  |  |  | 62 | 78 |  | 50 | 70 |  | 
5 | CCOP(=O)(CC1CC(n2ccc(N)nc2=O)ON1C)OCC (stereo not shown) [Compound A] |  |  |  | 48 | 72 |  | 45 | 70 |  | 
